{"source": "patent US20050282757A1", "about": "“Peptide boronic acid compounds useful in anticoagulation” (Trigen Limited, priority 2002, published 2005)", "key": {"thrombin time [1]": {"test_system": "thrombin time", "assay": "Intraduodenal absorption in rat, thrombin time (Examples 42 and 44)", "format": "in vivo, male Wistar rats", "parameters": "Mean increase in thrombin time / Thrombin time increase: unit not given here", "settings": "for Group mean thrombin time (s ± sd): 20 mg/kg intraduodenal", "protocol": "• Place 10 mg of the relevant compound in an Eppendorf cup • Add 0.5 mL ethanol and shake for 10 minutes • Sonicate for 10 minutes • Add 1.5 mL of buffer • Shake for additional 15 minutes • Resulting target concentration: 5 mg/mL B. Intraduodenal Studies\nThe intraduodenal studies were performed using male Wistar rats, approximately 8 weeks of age and weighing between 250 and 300 g.\nFood was withheld overnight prior to dosing and returned approximately 2 hours post-dose. Water was available ad libitum.\nAnimals were anaesthetised using gaseous halothane. A small incision was made in the abdomen and the duodenum located. Each animal received a single administration of control or test article by injection directly into the duodenum, using a constant dose volume of 4 mL/kg. Following administration the incision was closed using surgical staples.\nIndividual dose volumes were based on individual body weights, obtained on the day of dosing. Treatments employed for the study were as follows:\n(§1) Approximately 0.6 mL of blood was collected via a tail vein into 3.8% tri sodium citrate tubes approximately 48 hours prior to dosing and again at 0.5, 1, 2, 4 and 8 hours post-dose.\n(§2) Plasma was prepared by centrifugation at […] for 10 minutes at 4° C. Plasma was stored frozen (nominally −20° C.) prior to analysis in an automated coagulometer.\nThe thrombin times determined in example 42 were analysed to determine the standard deviation for increase in thrombin time, expressed as a percentage of the mean value (this is sometimes called the ‘coefficient of variation’)."}, "thrombin time [2]": {"test_system": "thrombin time", "assay": "Oral absorption in rat, thrombin time (Example 43)", "format": "in vivo, male Wistar rats", "settings": "20 mg/kg oral gavage", "protocol": "The procedure of Example 42 was followed.\nThe per-oral studies were performed using male Wistar rats, approximately 8 weeks of age and weighing between 250 and 300 g.\nFood was withheld overnight prior to dosing and returned approximately 2 hours post-dose. Water was available adlibitum.\nEach animal received a single administration of control or test article by oral gavage, using a constant dose volume of 4 mL/kg.\nIndividual dose volumes were based on individual body weights, obtained on the day of dosing.\nas §1, §2"}, "[3]": {"assay": "Hydrolysis under HPLC assay conditions", "format": "physicochemical", "settings": "acid conditions of an HPLC assay / HPLC sample preparation", "source_text": "It has been discovered that TRI 50b tends to hydrolyse."}, "[4]": {"assay": "Maximum aqueous solubility by UV after shaking in water at 37° C.", "format": "physicochemical", "settings": "read-out: Solubility when dissolved at 50 mg/ml"}, "thrombin time and APTT": {"test_system": "thrombin time and APTT", "assay": "Oral administration in dog, PK/PD (Example 45)", "method": "Three female and three male dogs were used for each leg of the study. The weight range of the dogs was 8-18 kg.\nThe PD was measured as thrombin time and APTT using an automated coagulometer. Plasma concentrations were measured using an LCMS/MS method.\nThe dose was tailored on an individual basis for each dog."}, "[5]": {"assay": "Stability in simulated gastric fluid (Example 51)", "format": "in vitro ADME", "settings": "37° C.", "protocol": "Approximately 2.5 mg of the compound is dissolved in 50 ml gastric fluid (37° C., according to BP with pepsin, an aliquot is transferred into an HPLC-vial and analysed immediately (time period =0). The aliquots for further time periods in HPLC-vials are stored in an autosampler at 37° C. […]"}, "[6]": {"settings": "individual rats dosed intraduodenally, in s"}, "[7]": {"settings": "gastric juice 0 min, initial set to 100"}}, "note": "Several values for one entry are separate records, joined by “and”; a condition that tells them apart may be missing. Equal values may be shown once. Entries after “also recorded” stand apart in the source; their conditions may differ.", "data": [{"smiles": "COCCC[C@H](NC(=O)[C@@H]1CCCN1C(=O)[C@@H](Cc1ccccc1)NC(=O)OCc1ccccc1)B([O-])O.[K+]", "note": "[Potassium Salt of TRI50C]", "values": [{"measurement": "Group mean thrombin time (s ± sd)", "setting": "thrombin time [1]; 0.5 hour", "result": "26.5 ± 3.64", "unit": "s"}, {"measurement": "Group mean thrombin time (s ± sd)", "setting": "thrombin time [1]; 1 hour", "result": "24.4 ± 3.35", "unit": "s"}, {"measurement": "Group mean thrombin time (s ± sd)", "setting": "thrombin time [1]; 2 hour", "result": "23.2 ± 0.83", "unit": "s"}, {"measurement": "Group mean thrombin time (s ± sd)", "setting": "thrombin time [1]; 4 hour", "result": "23.2 ± 2.36", "unit": "s"}, {"measurement": "Group mean thrombin time (s ± sd)", "setting": "thrombin time [1]; 8 hour", "result": "21.6 ± 0.70", "unit": "s"}, {"measurement": "Group mean thrombin time (s ± sd)", "setting": "thrombin time [1]; −48 hour (pre-dose)", "result": "20.0 ± 1.92", "unit": "s"}, {"measurement": "Group mean thrombin times (s ± sd)", "setting": "thrombin time [2]; 0.5 hour", "result": "24.7 ± 2.18", "unit": "s"}, {"measurement": "Group mean thrombin times (s ± sd)", "setting": "thrombin time [2]; 1 hour", "result": "24.1 ± 1.87", "unit": "s"}, {"measurement": "Group mean thrombin times (s ± sd)", "setting": "thrombin time [2]; 2 hour", "result": "22.9 ± 3.29", "unit": "s"}, {"measurement": "Group mean thrombin times (s ± sd)", "setting": "thrombin time [2]; 4 hour", "result": "23.2 ± 1.24", "unit": "s"}, {"measurement": "Group mean thrombin times (s ± sd)", "setting": "thrombin time [2]; 8 hour", "result": "23.8 ± 1.79", "unit": "s"}, {"measurement": "Group mean thrombin times (s ± sd)", "setting": "thrombin time [2]; −48 hour (pre-dose)", "result": "22.0 ± 1.40", "unit": "s"}]}, {"smiles": "COCCC[C@H](NC(=O)[C@@H]1CCCN1C(=O)[C@@H](Cc1ccccc1)NC(=O)OCc1ccccc1)B1OC(C)(C)C(C)(C)O1", "note": "[TRI 50b, Cbz-(R)-Phe-Pro-BoroMpg-OPinacol]", "values": [{"measurement": "stability under HPLC assay conditions", "setting": "[3]", "result": "converted to the acid form with a short half life"}]}, {"smiles": "COCCC[C@H](NC(=O)[C@@H]1CCCN1C(=O)[C@@H](Cc1ccccc1)NC(=O)OCc1ccccc1)B(O)O", "note": "[TRI 50c, Cbz-(R)-Phe-(S)-Pro-(R)-Mpg-B(OH)2]", "values": [{"measurement": "solubility", "setting": "[4]", "result": 8, "unit": "mM"}, {"measurement": "Group mean thrombin time (s ± sd)", "setting": "thrombin time [1]; 0.5 hour", "result": "42.1 ± 19.54", "unit": "s"}, {"measurement": "Group mean thrombin time (s ± sd)", "setting": "thrombin time [1]; 1 hour", "result": "27.5 ± 9.42", "unit": "s"}, {"measurement": "Group mean thrombin time (s ± sd)", "setting": "thrombin time [1]; 2 hour", "result": "23.5 ± 6.40", "unit": "s"}, {"measurement": "Group mean thrombin time (s ± sd)", "setting": "thrombin time [1]; 4 hour", "result": "21.8 ± 2.33", "unit": "s"}, {"measurement": "Group mean thrombin time (s ± sd)", "setting": "thrombin time [1]; 8 hour", "result": "21.5 ± 2.67", "unit": "s"}, {"measurement": "Group mean thrombin time (s ± sd)", "setting": "thrombin time [1]; −48 hour (pre-dose)", "result": "21.3 ± 2.69", "unit": "s"}, {"measurement": "Mean increase in thrombin time", "setting": "thrombin time [1]; 0.5 h minus 0 h, intraduodenal", "result": 20.26}, {"measurement": "Thrombin time, 0 h", "setting": "thrombin time [1]; [6]", "result": "23.70 and 23.10 and 16.85 and 21.67"}, {"measurement": "Thrombin time, 0.5 h", "setting": "thrombin time [1]; [6]", "result": "40.02 and 40.20 and 23.60 and 62.55"}, {"measurement": "Thrombin time increase", "setting": "thrombin time [1]; individual rats, 0.5 h minus 0 h", "result": "16.32 and 17.10 and 6.75 and 40.88"}, {"measurement": "Group mean thrombin times (s ± sd)", "setting": "thrombin time [2]; 0.5 hour", "result": "26.8 ± 1.96", "unit": "s"}, {"measurement": "Group mean thrombin times (s ± sd)", "setting": "thrombin time [2]; 1 hour", "result": "23.3 ± 3.68", "unit": "s"}, {"measurement": "Group mean thrombin times (s ± sd)", "setting": "thrombin time [2]; 2 hour", "result": "23.9 ± 2.25", "unit": "s"}, {"measurement": "Group mean thrombin times (s ± sd)", "setting": "thrombin time [2]; 4 hour", "result": "23.1 ± 2.70", "unit": "s"}, {"measurement": "Group mean thrombin times (s ± sd)", "setting": "thrombin time [2]; 8 hour", "result": "25.1 ± 0.33", "unit": "s"}, {"measurement": "Group mean thrombin times (s ± sd)", "setting": "thrombin time [2]; −48 hour (pre-dose)", "result": "22.9 ± 2.28", "unit": "s"}, {"measurement": "absorption as estimated by dynamic response (TT)", "setting": "thrombin time and APTT", "result": "Two animals failed to significantly absorb TRI 50c"}, {"measurement": "time of peak thrombin time post dose", "setting": "thrombin time and APTT", "result": 1.5, "unit": "h"}, {"measurement": "mean thrombin clotting time at peak (C max)", "setting": "thrombin time and APTT; base line 15 seconds (calcium salt), 15.4 seconds (TRI 50c)", "result": 34.2, "unit": "s"}, {"measurement": "tolerance", "setting": "thrombin time and APTT; enterically coated gelatine capsules", "result": "tolerated well with no adverse events; also recorded: well tolerated orally"}]}, {"smiles": "COCCC[C@H](NC(=O)[C@@H]1CCCN1C(=O)[C@@H](Cc1ccc(F)cc1)NC(=O)OCc1ccccc1)B([O-])O.[Na+]", "note": "[TRIf monosodium salt]", "values": [{"measurement": "results, peak at rt 14.5 min", "setting": "[5]; [7]", "result": 100.0, "unit": "peak-area-%"}, {"measurement": "results, peak at rt 17.3 min", "setting": "[5]; [7]", "result": 100.0, "unit": "peak-area-%"}, {"measurement": "results, peak at rt […]", "setting": "[5]; [7]", "result": 100.0, "unit": "peak-area-%"}, {"measurement": "results, peak at rt 14.5 min", "setting": "[5]; gastric juice 35 min", "result": 89.6, "unit": "peak-area-%"}, {"measurement": "results, peak at rt 17.3 min", "setting": "[5]; gastric juice 35 min", "result": 99.1, "unit": "peak-area-%"}, {"measurement": "results, peak at rt […]", "setting": "[5]; gastric juice 35 min", "result": 101.4, "unit": "peak-area-%"}, {"measurement": "results, peak at rt 14.5 min", "setting": "[5]; gastric juice 70 min", "result": 84.6, "unit": "peak-area-%"}, {"measurement": "results, peak at rt 17.3 min", "setting": "[5]; gastric juice 70 min", "result": 101.8, "unit": "peak-area-%"}, {"measurement": "results, peak at rt […]", "setting": "[5]; gastric juice 70 min", "result": 101.1, "unit": "peak-area-%"}, {"measurement": "results, peak at rt 14.5 min", "setting": "[5]; gastric juice 105 min", "result": 94.2, "unit": "peak-area-%"}, {"measurement": "results, peak at rt 17.3 min", "setting": "[5]; gastric juice 105 min", "result": 100.3, "unit": "peak-area-%"}, {"measurement": "results, peak at rt […]", "setting": "[5]; gastric juice 105 min", "result": 97.7, "unit": "peak-area-%"}, {"measurement": "results, peak at rt 14.5 min", "setting": "[5]; gastric juice 140 min", "result": 93.9, "unit": "peak-area-%"}, {"measurement": "results, peak at rt 17.3 min", "setting": "[5]; gastric juice 140 min", "result": 91.4, "unit": "peak-area-%"}, {"measurement": "results, peak at rt […]", "setting": "[5]; gastric juice 140 min", "result": 94.6, "unit": "peak-area-%"}, {"measurement": "results, peak at rt 14.5 min", "setting": "[5]; gastric juice 175 min", "result": 94.9, "unit": "peak-area-%"}, {"measurement": "results, peak at rt 17.3 min", "setting": "[5]; gastric juice 175 min", "result": 97.7, "unit": "peak-area-%"}, {"measurement": "results, peak at rt […]", "setting": "[5]; gastric juice 175 min", "result": 98.6, "unit": "peak-area-%"}, {"measurement": "results, peak at rt 14.5 min", "setting": "[5]; gastric juice 210 min", "result": 98.1, "unit": "peak-area-%"}, {"measurement": "results, peak at rt 17.3 min", "setting": "[5]; gastric juice 210 min", "result": 94.1, "unit": "peak-area-%"}, {"measurement": "results, peak at rt […]", "setting": "[5]; gastric juice 210 min", "result": 94.4, "unit": "peak-area-%"}]}]}
